Reference: patent EP4050002A1, “ANTI-PROLIFERATIVE AGENTS” (First Health Pharmaceuticals B.V., priority 2021, dated 2022)
Where two headings read alike, the source gives them in different places.

Assay: Pharmacokinetic studies, single administration
Assay type: in vivo, male Swiss albino mice
Conditions: for MRT last: read-out: MRT0-last
Description: The pharmacokinetic study was performed in male Swiss albino mice from Hylasco Biotechnology Pvt. Ltd. (A Charles River technology Licensee). The tissue distribution study was performed in male Swiss albino mice and in male FOXN1^nu/nu nude mice (Envigo spa). The efficacy study was performed in male FOXN1^nu/nu nude mice.
Single intravenous administration studies were done as follows: • 1. Compound 5 • dose: 1 mg/kg • dose concentration: 0.2 mg/ml in 10% DMSO and 10% Solutol in WFI (90%). • volume: 5 ml/kg • blood withdrawal time points: 0.083, 0.25, 0.5, 1, 2, 4, 8, 24 hours post administration • 2. Compound 3 • […] • dose concentration: 0.2 mg/ml in 10% DMSO and 10% Solutol in WFI (90%). • volume: 5 ml/kg • blood withdrawal time points: 0.083, 0.25, 0.5, 1, 2, 4, 8, 24 hours post administration
Single intraperitoneal administration studies were done as follows: • 1. Compound 5 • dose 1: 45 mg/kg • dose concentration: […] in 10% DMSO, 5% TWEEN 80 and WFI (85%) • volume: 5 ml/kg • blood withdrawal time points: 0.25, 0.5, 1, 2, 4, 6, 8, 24 hours post administration • brain, liver and lungs collected at 4, 8 and 24 hours • 2. Compound 5 • dose 2: 10 mg/kg • dose concentration: 2 mg/ml in 10% DMSO, 10% Solutol and WFI (90%). • volume: 5 ml/kg • blood withdrawal time points: 0.25, 0.5, 1, 2, 4, 6, 8, 24 hours post administration
Single oral administration studies were done as follows: • 1. Compound 5 • dose: 45 mg/kg • dose concentration: 4.5 mg/ml in Labrasol (30%), Capmul PG 8 (30%), Cremophor EL (10%) and PEG (30%) • volume given by oral gavage: 10 ml/Kg • blood withdrawal time points: 0.08, 0.25, 0.5, 1, 2, 4, 6, 8, 24 hours post administration
Single intra tracheal administration studies were done as follows: • 1. Compound 5 • dose: 0.08 mg/kg • dose concentration: 0.04 mg/ml in DMSO (1%) and WFI (99%) • volume given by intra tracheal route: 2 ml/Kg • blood withdrawal time points: 0.03, 0.08, 0.17, 0.25, 0.75, 1.5, 2, 4 hours post administration
Animals were observed up to 24 hours after dose administration for behavioral or physical alterations. For blood withdrawal, mice were anesthetized using gaseous anesthesia and 0.2 to 0.3 ml of blood samples were collected in Li-Heparin containing tubes at the time points above indicated, stored on ice, centrifuged within 15 minutes to separate plasma at 1540 ref (5000 rpm) at 4°C for 10 minutes; plasma was separated and transferred to new tubes.
Selected organs were collected at 4, 8 and 24 hours for drug distribution studies: mice were anesthetized and intra-cardiac whole body perfusion was performed using chilled saline. Separated tissues were immediately washed, dried, weighed and frozen at -80±10°C until homogenization. The levels of compound in the tissues and in plasma were quantified by LC-MS/MS, using as instrument Q-TRAP 500, with a column Phenomenex, KINETEX 5µ EVO C18 50 mm X 4.5 mm (Phenomenex). The mobile phase employed was composed as follows: aqueous reservoir, 10 mM Ammonium Acetate with 0.1% Formic acid in MilliQ water; organic reservoir, Acetonitrile:Methanol (50:50, v/v); flow rate 1 ml/min; injection volume 10µl; rinsing solution, Acetonitrile:Methanol:Water (20:60:20, v/v).
Calibration Curve & Quality Control samples preparation: 0.5 µl of calibration curve standards were diluted 25X with blank matrix (i.e. Acetonitrile:Methanol (1:1, v/v)) and precipitated with 200 µl of acetonitrile containing internal standard at 200 ng/ml concentration, then vortexed for 5 min at 850 rpm, centrifuged at 4000 rpm for 5 min at 4°C, from this 110 µl of supernatant was separated and diluted with 130 µl of methanol:water, (1:1 v/v) .
Telmisartan (200 ng/ml) was used as internal standard. Telmisartan was spiked in 100% acetonitrile to a final concentration of 200 ng/ml. […]

[1] = I.P. 1, 45 mg/kg, TWEEN-based vehicle
[2] = I.P. 2, 10 mg/kg, Solutol-based vehicle
[3] = mouse, in vivo, iv, I.V., 1 mg/kg
[4] = mouse, plasma, ip, I.P. 1, 45 mg/kg, TWEEN-based vehicle
[5] = mouse, plasma, ip, I.P. 2, 10 mg/kg, Solutol-based vehicle
[6] = mouse, plasma, iv, I.V., 1 mg/kg
[7] = mouse, plasma, po, P.O., 45 mg/kg
[8] = mouse, plasma, I.T., 0.08 mg/kg

For `CCCCc1cn(-c2ccc(-c3nnc(-c4ccccc4C(F)(F)F)o3)cc2)nn1` [Compound 5], the AUCExtra [1] was 14.86%, the F [1] was 136% and the AUCExtra [2] was 5.02%. For the same compound, the F [2] was 135%, the AUCExtra (I.T., 0.08 mg/kg) was 2.92% and the AUCExtra (I.V., 1 mg/kg) was 3.98%. For the same compound, the AUCExtra (P.O., 45 mg/kg) was 16.91%, the F (P.O., 45 mg/kg) was 95% and the bioavailability (mouse, in vivo, ip, intraperitoneal route, read-out: absolute bioavailability (F)) was over 100%. The Vd [3] was 8.2 L/kg, the clearance [3] was 40 mL/min/kg and the AUC(0-inf) [4] was 25600 ng·h/mL. It also gave an AUC(0-t) [4] of 21800 ng·h/mL, a Cmax [4] of 3700 ng/mL and a Tmax [4] of 2 h. For the same compound, the MRT last [4] was 7.46 h, the AUC(0-inf) [5] was 5630 ng·h/mL and the AUC(0-t) [5] was 5350 ng·h/mL. For the same compound, the Cmax [5] was 692 ng/mL, the Tmax [5] was 2 h and the MRT last [5] was 6.49 h. For the same compound, the AUC(0-inf) [6] was 417 ng·h/mL, the AUC(0-t) [6] was 400 ng·h/mL and the C0 [6] was 879 ng/mL. It also gave a half-life [6] of 2.37 h, an MRT last [6] of 1.09 h and an AUC(0-inf) [7] of 17800 ng·h/mL. The AUC(0-t) [7] was 14800 ng·h/mL, the Cmax [7] was 1350 ng/mL and the Tmax [7] was 4 h. The MRT last [7] was 9.05 h, the AUC(0-inf) [8] was 815 ng·h/mL and the AUC(0-t) [8] was 791 ng·h/mL. It also gave a Cmax [8] of 1950 ng/mL, a Tmax [8] of 0.03 h and an MRT last [8] of 0.72 h.
